# From PubChem BioAssay (NCI)
#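 These data come from cells grown in 96-well plates and exposed to compound for 48 hours at five concentrations. Abbreviation: GI50, concentration required for 50% inhibition of growth. TGI: concentration producing complete growth inhibition.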
# Columns and labels:
# Assay in all cases: NCI anticancer screen, dose series, 48 h
# HS 578T breast = system: HS 578T breast
# KM12 colon = system: KM12 colon
# UACC-62 melanoma = system: UACC-62 melanoma
# EKVX NSCLC = system: EKVX NSCLC
# HOP-62 NSCLC = system: HOP-62 NSCLC
# A549 NSCLC = system: A549 NSCLC
# OVCAR-3 ovarian = system: OVCAR-3 ovarian
# U251 CNS = system: U251 CNS
# SK-MEL-5 melanoma = system: SK-MEL-5 melanoma
# SF-295 CNS = system: SF-295 CNS
# MDA-MB-231 breast = system: MDA-MB-231 breast
# 786-0 renal = system: 786-0 renal
# TK-10 renal = system: TK-10 renal
# M14 melanoma = system: M14 melanoma
# ACHN renal = system: ACHN renal
# OVCAR-8 ovarian = system: OVCAR-8 ovarian
# SK-MEL-28 melanoma = system: SK-MEL-28 melanoma
# SK-OV-3 ovarian = system: SK-OV-3 ovarian
# UACC-257 melanoma = system: UACC-257 melanoma
# SK-MEL-2 melanoma = system: SK-MEL-2 melanoma
# HCT-15 colon = system: HCT-15 colon
# HOP-92 NSCLC = system: HOP-92 NSCLC
# NCI/ADR-RES ovarian = system: NCI/ADR-RES ovarian
# OVCAR-5 ovarian = system: OVCAR-5 ovarian
# SNB-19 CNS = system: SNB-19 CNS
# DU-145 prostate = system: DU-145 prostate
# NCI-H23 lung = system: NCI-H23 lung
# SW-620 colon = system: SW-620 colon
# MDA-MB-435 = system: MDA-MB-435
# COLO 205 colon = system: COLO 205 colon
# SF-539 CNS = system: SF-539 CNS
# HL-60(TB) leukemia = system: HL-60(TB) leukemia
# NCI-H522 lung = system: NCI-H522 lung
# LOX IMVI melanoma = system: LOX IMVI melanoma
# MCF7 breast = system: MCF7 breast
# PC-3 prostate = system: PC-3 prostate
# MALME-3M melanoma = system: MALME-3M melanoma
# SF-268 CNS = system: SF-268 CNS
# CAKI-1 renal = system: CAKI-1 renal
# CCRF-CEM leukemia = system: CCRF-CEM leukemia
# HCT-116 colon = system: HCT-116 colon
# NCI-H226 lung = system: NCI-H226 lung
# RPMI-8226 leukemia = system: RPMI-8226 leukemia
# T-47D breast = system: T-47D breast
# RXF 393 renal = system: RXF 393 renal
# K-562 leukemia = system: K-562 leukemia
# HCC-2998 colon = system: HCC-2998 colon
# IGROV1 ovarian = system: IGROV1 ovarian
# SN12C renal = system: SN12C renal
# A498 renal = system: A498 renal
# UO-31 renal = system: UO-31 renal
# NCI-H460 lung = system: NCI-H460 lung
# HT29 colon = system: HT29 colon
# BT-549 breast = system: BT-549 breast
compound,measurement,setting,value
CCOC(=O)/C=C/C(C(=O)/C=C/c1ccc(OC2CCCCO2)c(OC)c1)=C(O)\C=C\c1ccc(OC2CCCCO2)c(OC)c1 (stereo not drawn),GI50,HS 578T breast,12.3 µM
same,TGI,HS 578T breast,80.5 µM
same,GI50,KM12 colon,4.75 µM
same,TGI,KM12 colon,19 µM
same,GI50,UACC-62 melanoma,3.02 µM
same,TGI,UACC-62 melanoma,12.8 µM
same,GI50,EKVX NSCLC,10.7 µM
same,TGI,EKVX NSCLC,> 100 µM
same,GI50,HOP-62 NSCLC,6.09 µM
same,TGI,HOP-62 NSCLC,32.5 µM
same,GI50,A549 NSCLC,13.5 µM
same,TGI,A549 NSCLC,39 µM
same,GI50,OVCAR-3 ovarian,2.58 µM
same,TGI,OVCAR-3 ovarian,8.47 µM
same,GI50,U251 CNS,3.36 µM
same,TGI,U251 CNS,12.6 µM
same,GI50,SK-MEL-5 melanoma,4.44 µM
same,TGI,SK-MEL-5 melanoma,16.5 µM
same,GI50,SF-295 CNS,10.7 µM
same,TGI,SF-295 CNS,42.8 µM
same,GI50,MDA-MB-231 breast,2.56 µM
same,TGI,MDA-MB-231 breast,6.73 µM
same,GI50,786-0 renal,4.96 µM
same,TGI,786-0 renal,20.3 µM
same,GI50,TK-10 renal,2.84 µM
same,TGI,TK-10 renal,9.21 µM
same,GI50,M14 melanoma,3.48 µM
same,TGI,M14 melanoma,15.3 µM
same,GI50,ACHN renal,3.61 µM
same,TGI,ACHN renal,12.5 µM
same,GI50,OVCAR-8 ovarian,2.51 µM
same,TGI,OVCAR-8 ovarian,6.2 µM
same,GI50,SK-MEL-28 melanoma,2.48 µM
same,TGI,SK-MEL-28 melanoma,6.74 µM
same,GI50,SK-OV-3 ovarian,23.1 µM
same,TGI,SK-OV-3 ovarian,> 100 µM
same,GI50,UACC-257 melanoma,19.8 µM
same,TGI,UACC-257 melanoma,78.4 µM
same,GI50,SK-MEL-2 melanoma,3.27 µM
same,TGI,SK-MEL-2 melanoma,15.2 µM
same,GI50,HCT-15 colon,3.59 µM
same,TGI,HCT-15 colon,12.6 µM
same,GI50,HOP-92 NSCLC,20.2 µM
same,TGI,HOP-92 NSCLC,58.2 µM
same,GI50,NCI/ADR-RES ovarian,10.6 µM
same,TGI,NCI/ADR-RES ovarian,46.3 µM
same,GI50,OVCAR-5 ovarian,7.81 µM
same,TGI,OVCAR-5 ovarian,74.5 µM
same,GI50,SNB-19 CNS,5.32 µM
same,TGI,SNB-19 CNS,25.2 µM
same,GI50,DU-145 prostate,7.01 µM
same,TGI,DU-145 prostate,42.6 µM
same,GI50,NCI-H23 lung,5.9 µM
same,TGI,NCI-H23 lung,18.7 µM
same,GI50,SW-620 colon,3.65 µM
same,TGI,SW-620 colon,> 100 µM
same,GI50,MDA-MB-435,3.23 µM
same,TGI,MDA-MB-435,13.6 µM
same,GI50,COLO 205 colon,3.1 µM
same,TGI,COLO 205 colon,11.4 µM
same,GI50,SF-539 CNS,20.3 µM
same,TGI,SF-539 CNS,53.1 µM
same,GI50,HL-60(TB) leukemia,3.01 µM
same,TGI,HL-60(TB) leukemia,> 100 µM
same,GI50,NCI-H522 lung,2.22 µM
same,TGI,NCI-H522 lung,6.68 µM
same,GI50,LOX IMVI melanoma,1.63 µM
same,TGI,LOX IMVI melanoma,3.32 µM
same,GI50,MCF7 breast,4.42 µM
same,TGI,MCF7 breast,36.2 µM
same,GI50,PC-3 prostate,3.85 µM
same,TGI,PC-3 prostate,> 100 µM
same,GI50,MALME-3M melanoma,2.07 µM
same,TGI,MALME-3M melanoma,5.9 µM
same,GI50,SF-268 CNS,4.88 µM
same,TGI,SF-268 CNS,> 100 µM
same,GI50,CAKI-1 renal,4.97 µM
same,TGI,CAKI-1 renal,> 100 µM
same,GI50,CCRF-CEM leukemia,2.69 µM
same,TGI,CCRF-CEM leukemia,8.35 µM
same,GI50,HCT-116 colon,2.09 µM
same,TGI,HCT-116 colon,4.76 µM
same,GI50,NCI-H226 lung,12.9 µM
same,TGI,NCI-H226 lung,34.7 µM
same,GI50,RPMI-8226 leukemia,4.13 µM
same,TGI,RPMI-8226 leukemia,17.8 µM
same,GI50,T-47D breast,15.1 µM
same,TGI,T-47D breast,60.3 µM
same,GI50,RXF 393 renal,2.21 µM
same,TGI,RXF 393 renal,5.68 µM
same,GI50,K-562 leukemia,2.62 µM
same,TGI,K-562 leukemia,75 µM
same,GI50,HCC-2998 colon,9.53 µM
same,TGI,HCC-2998 colon,21.6 µM
same,GI50,IGROV1 ovarian,2.85 µM
same,TGI,IGROV1 ovarian,6.68 µM
same,GI50,SN12C renal,2.16 µM
same,TGI,SN12C renal,4.96 µM
same,GI50,A498 renal,18.3 µM
same,TGI,A498 renal,35.7 µM
same,GI50,UO-31 renal,2.63 µM
same,TGI,UO-31 renal,7.56 µM
same,GI50,NCI-H460 lung,11.9 µM
same,TGI,NCI-H460 lung,50.5 µM
same,GI50,HT29 colon,1.94 µM
same,TGI,HT29 colon,4.51 µM
same,GI50,BT-549 breast,5.18 µM
same,TGI,BT-549 breast,28.4 µM
